According to patent publication US5646246A, “Isolation and structural elucidation of the human cancer cell growth inhibitory cyclic peptides phakellistatin 4, 5, 6, 7, 8 and 9” (Arizona Board of Regents acting on behalf of Arizona State …, priority 1994, dated 1997):
In brackets after ≈: the same amount, converted by molar mass. Where a SMILES comes first, the peptide text is derived from it.

Assays:
Format in all cases: cell-based
[1] = tested on: murine lymphocytic leukemia P388; experiment: in vitro murine P388 lymphocytic leukemia cell growth inhibition; conditions: dose reducing percent growth to 50%
Excerpt: The following measures are used to express drug activity by giving the drug dose which reduces cell growth to a specified percentage of growth:
(§1) ED50 (P388) and GI50 (HTCL) are the drug doses needed to reduce the percent growth to 50%. There is no mathematical difference between ED50 and GI50, which are both calculated using the same formula. The only difference is historical usage. TGI, (Total Growth Inhibition), is the drug dose needed to yield zero percent growth, i.e., just as many cells at the end of the experiment as were present in the beginning. Whether just as many cells were killed as were produced (steady state), or no growth occurred (total inhibition), cannot be distinguished.
(§2) Each drug is tested at five (5) doses: 100--10--1--0.1--0.01 μg/ml. Percent Growths are calculated for each dose. The two (or three) doses with growth values above, below, (or near to) 50% growth are used to calculate the ED50 /GI50 using a linear regression formula. The log of the dose is used during the regression computation. If no dose yields a growth value under 50%, the results are expressed as: ED50 >(highest dose). If no dose yields growth higher than 50% growth, then ED50 <(lowest dose). Similar calculations are performed for the TGI at 0% growth, and at -50% growth for the LC50.
(§3) At the start of an experiment, cells from the in vitro cell cultures are inoculated into the appropriate tubes or microtiter plates. One set of control tubes/plates is immediately counted to determine the number of cells at the start of the experiment. This is the "baseline count", or "Tzero reading". At the end of the experiment (48 hours later), a second set of control tubes/plates is analyzed to determine the "Control Growth" value. The growth (or death) of cells relative to the initial quantity of cells is used to define the "Percent of Growth".

[2] = tested on: OVCAR-3; experiment: human cancer cell line growth inhibition, ovarian OVCAR-3
Excerpt: as §1
(§4) Each drug is tested at five (5) doses: 100--10--1--0.1--0.01 μg/ml. Percent Growths are calculated for each dose. The two (or three) doses with growth values above, below, (or near to) 50% growth are used to calculate the ED50 /GI50 using a linear regression formula. […]
as §3

[3] = tested on: SF-295; experiment: human cancer cell line growth inhibition, CNS SF-295
Excerpt: as §1, §4, §3

[4] = tested on: A498; experiment: human cancer cell line growth inhibition, renal A498
Excerpt: as §1, §4, §3

[5] = tested on: NCI-H460; experiment: human cancer cell line growth inhibition, lung NCI-H460
Excerpt: as §1, §4, §3

[6] = tested on: KM20L2; experiment: human cancer cell line growth inhibition, colon KM20L2
Excerpt: as §1, §4, §3

[7] = tested on: SK-MEL-5; experiment: human cancer cell line growth inhibition, melanoma SK-MEL-5
Excerpt: as §1, §4, §3

[8] = tested on: NCI human cancer cell line panel; experiment: NCI human cancer cell line panel, in vitro primary screen; conditions: for in vitro growth inhibitory activity against human cancer cell lines: result in words
Excerpt: Current research in the control of cancer in the U.S. is coordinated by the National Cancer Institute (NCI). To determine whether a substance has anti-cancer properties, the NCI has established a systematic protocol. This protocol, which involves the testing of a substance against a standard cell line panel containing 60 human tumor cell lines, has been verified and is accepted in scientific circles. The protocol, and the established statistical means for analyzing the results obtained by the standardized testing are fully described in the literature. See: Boyd, Dr. Michael R., Principles & Practice of Oncology, PPO Updates, Volume 3, Number 10, October 1989, for a general overview of the testing protocol; Monks, Anne et al., "Feasibility of a High-Flux Anticancer Drug Screen Using a Diverse Panel of Cultured Human Tumor Cell Lines", 83 J. Nat. Cancer Inst., No. 11, 757 (1991); and Paull, K. D., "Display and Analysis of Patterns of Differential Activity of Drugs Against Human Tumor Cell Lines; Development of Mean Graph and COMPARE Algorithm", 81 Journal of the National Cancer Institute Reports, No. 14, 1088, (1989), for a description of the methods of statistical analysis. Each of these references are incorporated herein by this reference thereto.
as §1
LC50, (Lethal Concentration 50%), is the drug concentration which reduces growth to -50%, i.e., removes half of the cells originally present at the beginning of the experiment.
as §2, §3

SMILES | ED50 (P388) [1] [µg/mL] | GI50 ovarian OVCAR-3 [2] [µg/mL] | GI50 CNS SF-295 [3] [µg/mL] | GI50 renal A498 [4] [µg/mL] | GI50 lung NCI-H460 [5] [µg/mL] | GI50 colon KM20L2 [6] [µg/mL] | GI50 melanoma SK-MEL-5 [7] [µg/mL] | in vitro growth inhibitory activity against human cancer cell lines [8] | GI50 ([8]; NCI human cancer cell line panel, quadruplicate experiments) [nM]
CC[C@H](C)[C@@H]1NC(=O)[C@@H]2CCCN2C(=O)[C@H](CC(C)C)NC(=O)C(Cc2c[nH]c3ccccc23)NC(=O)[C@@H]2CCCN2C(=O)[C@H](Cc2ccccc2)NC(=O)[C@@H]2CCCN2C1=O (stereo partly drawn) [phakellistatin 6, cyclo-(Pro-Trp-Leu-Pro-Ile-Pro-Phe)] | 0.18 (≈ 0.212 µM) | 0.025 (≈ 0.0294 µM) | 0.041 (≈ 0.0482 µM) | 0.078 (≈ 0.0917 µM) | 0.019 (≈ 0.0223 µM) | 0.021 (≈ 0.0247 µM) | 0.032 (≈ 0.0376 µM) | growth inhibitory activity was also demonstrated | –
CC[C@H](C)[C@@H]1NC(=O)[C@H](C)NC(=O)[C@H](CCSC)NC(=O)[C@H](C)NC(=O)[C@@H](CC(N)=O)NC(=O)[C@H](Cc2ccccc2)NC(=O)[C@@H]2CCCN2C1=O [phakellistatin 5, cyclo-(Pro-Phe-Asn-Ala-Met-Ala-Ile)] | 0.23 (≈ 0.309 µM) | – | – | – | – | – | – | growth inhibitory activity was also demonstrated | ~3000
CC[C@H](C)[C@@H]1NC(=O)[C@@H]2CCCN2C(=O)[C@@H]2CCCN2C(=O)[C@H]([C@@H](C)CC)NC(=O)[C@H](Cc2ccc(O)cc2)NC(=O)[C@@H]2CCCN2C(=O)[C@@H]2CCCN2C(=O)[C@H](CC(C)C)NC(=O)[C@H](C(C)C)NC(=O)[C@H](Cc2ccccc2)NC1=O [phakellistatin 8, cyclo-(Pro-Pro-Ile-Phe-Val-Leu-Pro-Pro-Tyr-Ile)] (cyclo(FVLPPYIPPI)) | 4.1 (≈ 3.6 µM) | – | – | – | – | – | – | growth inhibitory activity was also demonstrated | –
CC[C@H](C)[C@@H]1NC(=O)[C@@H]2CCCN2C(=O)[C@@H]2CCCN2C(=O)[C@H]([C@@H](C)CC)NC(=O)[C@H](Cc2ccc(O)cc2)NC(=O)[C@@H]2CCCN2C(=O)[C@@H]2CCCN2C(=O)[C@H](CC(C)C)NC(=O)[C@H](C)NC(=O)[C@H](Cc2ccccc2)NC1=O [phakellistatin 7, cyclo-(Pro-Pro-Ile-Phe-Ala-Leu-Pro-Pro-Tyr-Ile)] (cyclo(ALPPYIPPIF)) | 3.0 (≈ 2.7 µM) | – | – | – | – | – | – | growth inhibitory activity was also demonstrated | –
CC[C@H](C)[C@@H]1NC(=O)[C@@H]2CCCN2C(=O)[C@@H]2CCCN2C(=O)[C@H](C(C)C)NC(=O)[C@H](Cc2ccc(O)cc2)NC(=O)[C@@H]2CCCN2C(=O)[C@@H]2CCCN2C(=O)[C@H](CC(C)C)NC(=O)[C@H](C(C)C)NC(=O)[C@H](Cc2ccccc2)NC1=O [phakellistatin 9, cyclo-(Pro-Pro-Ile-Phe-Val-Leu-Pro-Pro-Tyr-Val)] (cyclo(FVLPPYVPPI)) | 1.7 (≈ 1.51 µM) | – | – | – | – | – | – | growth inhibitory activity was also demonstrated | –
